Data reported in PMC7224190, “Pharmacological inhibition of PRMT7 links arginine monomethylation to the cellular stress response” (Nature Communications, 2020).

How the values were obtained:
PRMT7 [1] = biological target: T1, PRMT7 (Homo sapiens, UniProt Q9NVM4); assay: radiometric SPA methyltransferase assay (negative control compound, weak); format: biochemical
T1 sequence (Q9NVM4 1-692): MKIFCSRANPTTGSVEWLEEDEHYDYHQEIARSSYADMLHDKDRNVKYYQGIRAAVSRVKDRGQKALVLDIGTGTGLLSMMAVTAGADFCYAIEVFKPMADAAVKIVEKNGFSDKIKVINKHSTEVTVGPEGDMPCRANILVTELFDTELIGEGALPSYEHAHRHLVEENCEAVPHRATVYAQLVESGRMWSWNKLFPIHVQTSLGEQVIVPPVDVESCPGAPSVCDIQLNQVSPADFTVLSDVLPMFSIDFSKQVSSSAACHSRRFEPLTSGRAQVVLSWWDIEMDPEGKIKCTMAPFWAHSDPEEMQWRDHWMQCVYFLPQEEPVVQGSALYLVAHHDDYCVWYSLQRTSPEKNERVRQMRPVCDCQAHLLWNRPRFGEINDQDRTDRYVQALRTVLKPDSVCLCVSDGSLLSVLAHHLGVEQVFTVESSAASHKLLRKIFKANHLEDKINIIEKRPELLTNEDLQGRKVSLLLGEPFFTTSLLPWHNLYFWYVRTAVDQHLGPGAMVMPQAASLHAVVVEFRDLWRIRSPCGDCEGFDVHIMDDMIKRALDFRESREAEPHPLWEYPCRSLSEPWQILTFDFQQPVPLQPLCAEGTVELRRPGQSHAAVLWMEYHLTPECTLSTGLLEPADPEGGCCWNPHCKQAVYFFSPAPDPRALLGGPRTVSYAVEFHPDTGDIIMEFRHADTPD

PRMT7 [2] = biological target: T1, PRMT7; assay: radiometric SPA methyltransferase assay, 3H-SAM and H2B ([…]); format: biochemical

SMILES	IC50 (PRMT7 [1])	IC50 (PRMT7 [2])
CC1(C)O[C@@H]2[C@H](O1)[C@@H](CSCCCCNCc1cccc(-c3ccc(Cl)cc3)c1)O[C@H]2n1cnc2c(N)ncnc21 [SGC8158N]	14 ± 2 µM	–
Nc1ncnc2c1ncn2[C@@H]1O[C@H](CSCCCNCc2cccc(-c3ccc(Cl)cc3)c2)[C@@H](O)[C@H]1O [SGC8172]	–	< 0.0025 µM
